Laboratory results reported in patent US10407445B2, “Hepatitis C virus inhibitors” (ENANTA PHARMACEUTICALS, INC., priority 2013, dated 2019).
pEC50: −log10 of the molar value. Where two headings read alike, the source gives them in different places.

Key:
Type in all cases: cell-based
HCV GT 3a replicon = assay: HCV replicon assay, GT2a chimeric replicon expressing NS5A from GT3a strain S52; conditions: Hepatitis C virus; for pEC50: 72 h, read-out: EC50 3a
Protocol: The activity of compounds was determined against HCV replicons representing genotypes (GT) 1a, 1b, 2a, and 3a. To generate stable Huh-7.5-based cell lines, HCV replicons were engineered to express the Renilla luciferase reporter (hRluc) fused to the neomycin phosphotransferase (Neo) gene. GT2a and GT3a HCV replicons were based on the JFH-1 subgenomic replicon (Kato et al. 2003 Gastroenterology, 125:1808-1817), in which the NS5A gene was replaced with that of strains J6 and S52 (GT2a and G3a, respectively). The activity of compounds against GT1a replicons encoding NS5A mutations (M28T, Q30R, L31M, Y93C, and Y93H) was also determined in a transient replication assay. The parental GT1a and GT2a replicons (pH/SG-Neo(L+I) and pSG-Neo-JFH1, respectively) were licensed from Apath LLC (Saint Louis, Mo.). The parental GT 1b replicon (pFKi389lucubineo_3_3′_ET) was licensed from ReBLikon GmbH (Germany). HCV replicons were constructed by standard molecular biology techniques described below. All replicon constructs were verified by restriction enzyme digestion and DNA sequencing.
The plasmid pSG-hRlucNeo-JFH1 was generated from pSG-Neo-JFH1 (Kato et al. 2003, Gastroentrology 125:1808-1817). A fragment containing the JFH-1 5′ NTR—hRluc-Neo gene and two unique restriction sites (AgeI and PmeI) was synthesized (Integrated DNA Technologies, Coralville, Iowa). The resulting synthetic plasmid was digested with AgeI and PmeI and the excised fragment (5′NTR-hRluc-Neo) was ligated into pSG-Neo-JFH1 digested with the same enzymes to generate pSG-hRlucNeo-JFH1. To allow expression of heterologous NS5A sequences, an NS5A shuttle vector was generated from pSG-Neo-JFH1, in which the entire coding sequence of NS5A plus the first eight codons of NS5B were replaced with an AfeI restriction site. This was done by Infusion cloning (Clontech, Mountain View, Calif.) from two PCR products that were generated using pSG-Neo-JFH1 as a template and the following primer pairs:
Underlined sequences denote regions of overlap necessary for Infusion cloning. Purified PCR products were cloned directly into an NsiI/SnaBI digested pSG-Neo-JFH1 following the manufacturer's instructions to generate pSG-Neo-JFH1-5Ashuttle. The 2023 base pair AgeI/PmeI fragment from pSG-hRlucNeo-JFH1 was then ligated into pSG-Neo-JFH1-5Ashuttle to generate pSG-hRlucNeo-JFH1-5Ashuttle. To generate the 2a-2a-(J6) and 2a-3a-(S52) NS5A chimeric replicons, the full length NS5A sequences from GT2a strain J6 (accession AF177036) and GT3a strain S52 (accession GU814263), with the addition of the first eight codons of JFH-1 NS5B (5′-TCCATGTCATACTCCTGGACCGGG-3′), were synthesized by GeneArt (Life Technologies, Carlsbad Calif.). J6 and S52 NS5A sequences were then PCR amplified from the synthetic clones using the appropriate forward primer:
Underlined sequences denote regions of overlap with pSG-hRlucNeo-JFH1-5Ashuttle necessary for Infusion cloning. Purified PCR products were directly cloned into AfeI-digested shuttle vector by Infusion cloning following the manufacturer's instructions.
Stable HCV replicon cell lines were grown in complete media (Dulbecco's modified Eagle medium [DMEM], 2 mM L-glutamine, 0.1 mM essential amino acids, 1 mM sodium pyruvate, 10% heat inactivated fetal bovine serum) with the addition 500 μg/ml […] (G418). Huh7-lunet cells were maintained in the same medium without the addition of G418. Cells were routinely passaged at a dilution of 1:4 two times a week. The assay medium for both luciferase reporter HCV replicon and cytotoxicity assays used phenol red-free DMEM and lacked G418. For each stable replicon assay, a sixteen point half-log dilution series of compound was stamped (0.5 ul compound per well) into three replica 384-well plates, to which cells were added directly (4000 cells/well). […]

[1] = test system: GT1a replicon encoding NS5A mutation Q30R; assay: Transient replication assay, GT1a replicon with NS5A mutation Q30R; conditions: Hepatitis C virus; for pEC50: read-out: EC50 1a Q30R
HCV GT 1a replicon = assay: HCV replicon assay, stable GT 1a replicon (Renilla luciferase); conditions: Hepatitis C virus, GT1A; for pEC50: HCV GT 1a replicon, 72 h, read-out: EC50 1a
How it was run: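 Huh-7.5 cells stably carrying a GT1a replicon (H77-based) with Renilla luciferase-Neo reporter, 4000 cells/well, sixteen-point half-log compound series, phenol red-free DMEM without G418. Luciferase read after 72 h relative to DMSO-treated cells gives EC50.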

| SMILES | pEC50 (HCV GT 3a replicon) | pEC50 [1] | pEC50 (HCV GT 1a replicon) | EC50 (HCV GT 3a replicon; read-out: EC50 (nM) 3a) | EC50 ([1]; read-out: EC50 (nM) 1a Q30R) | EC50 (HCV GT 1a replicon; comparative table, GT 1a, read-out: EC50 (nM) 1a) |
| --- | --- | --- | --- | --- | --- | --- |
| COC(=O)N[C@H](C(=O)N1[C@H](c2nc3ccc4cc(-c5ccc(-c6cnc([C@@H]7C[C@@]8(CCCOC8)CN7C(=O)[C@@H](NC(=O)OC)C7C[C@@H](C)O[C@H](C)C7)[nH]6)cc5)ccc4c3[nH]2)C[C@@H]2CCCC[C@@H]21)C(C)C (stereo in doubt) [Compound 38] | 10.15 | 11.70 | 11.10 | – | – | – |
| COC(=O)N[C@H](C(=O)N1C[C@]2(CCCOC2)C[C@H]1c1nc2ccc3cc(-c4ccc5c(ccc6nc([C@@H]7C[C@@]8(CCCOC8)CN7C(=O)[C@@H](NC(=O)OC)C(C)C)[nH]c65)c4)ccc3c2[nH]1)C(C)C [Compound 31] | 10.00 | 10.70 | 10.52 | – | – | – |
| COC(=O)N[C@H](C(=O)N1CCC[C@H]1c1nc2ccc3cc(-c4ccc5c(ccc6nc([C@@H]7C[C@@]8(CCCOC8)CN7C(=O)[C@@H](NC(=O)OC)C(C)C)[nH]c65)c4)ccc3c2[nH]1)C(C)C [Compound 48] | 10.15 | 10.30 | 11.22 | – | – | – |
| COC(=O)N[C@H](C(=O)N1C[C@]2(CCCOC2)C[C@H]1c1ncc(-c2ccc(-c3ccc4c(ccc5nc([C@@H]6C[C@H]7C[C@H]7N6C(=O)[C@@H](NC(=O)OC)C(C)C)[nH]c54)c3)cc2)[nH]1)C(C)C [Compound 18] | 9.00 | 10.30 | 11.15 | – | – | – |
| COC(=O)N[C@H](C(=O)N1C[C@]2(CCCOC2)C[C@H]1c1ncc(-c2ccc(-c3ccc4c(ccc5nc([C@@H]6C[C@@H]7CCCC[C@@H]7N6C(=O)[C@@H](NC(=O)OC)C(C)C)[nH]c54)c3)cc2)[nH]1)C(C)C [Compound 29] | 9.52 | 11.00 | 11.22 | – | – | – |
| COC(=O)N[C@H](C(=O)N1C[C@]2(CCCOC2)C[C@H]1c1nc2ccc3cc(-c4ccc(-c5cnc([C@@H]6C[C@@H]7CCC[C@@H]7N6C(=O)[C@@H](NC(=O)OC)C(C)C)[nH]5)cc4)ccc3c2[nH]1)C(C)C [Compound 10] | 9.70 | 10.70 | 11.30 | – | – | – |
| COC(=O)N[C@H](C(=O)N1C[C@@]2(CCCCO2)C[C@H]1c1nc(-c2ccc(-c3ccc4c(ccc5nc([C@@H]6CCCN6C(=O)[C@@H](NC(=O)OC)C(C)C)[nH]c54)c3)cc2)c[nH]1)C(C)C [Example 3] | 6.81 | 8.30 | 9.84 | – | – | – |
| COC(=O)N[C@H](C(=O)N1CC2(CC2)C[C@H]1c1nc2ccc3cc(-c4ccc5c(ccc6nc([C@@H]7C[C@@]8(CCCOC8)CN7C(=O)[C@@H](NC(=O)OC)C(C)C)[nH]c65)c4)ccc3c2[nH]1)C(C)C [Compound 7] | 10.30 | 10.52 | 11.05 | – | – | – |
| COC(=O)N[C@H](C(=O)N1C[C@]2(CCCOC2)C[C@H]1c1ncc(-c2ccc3c(c2)COc2cc(-c4cnc([C@@H]5C[C@@H]6CCCC[C@@H]6N5C(=O)[C@@H](NC(=O)OC)C(C)C)[nH]4)ccc2-3)[nH]1)C(C)C [Compound 15] | 9.70 | 11.52 | 11.10 | – | – | – |
| COC(=O)N[C@H](C(=O)N1C[C@]2(CCCOC2)C[C@H]1c1nc2ccc3cc(-c4ccc5c(ccc6nc([C@@H]7C[C@@H]8COC[C@@H]8N7C(=O)[C@@H](NC(=O)OC)C(C)C)[nH]c65)c4)ccc3c2[nH]1)C(C)C [Compound 36] | 9.00 | 10.40 | 10.54 | – | – | – |
| COC(=O)N[C@H](C(=O)N1C[C@]2(CCCO2)C[C@H]1c1ncc(-c2ccc(-c3ccc4c(ccc5nc([C@@H]6CCCN6C(=O)[C@@H](NC(=O)OC)C(C)C)[nH]c54)c3)cc2)[nH]1)C(C)C [Example 81] | 8.52 | 10.30 | 10.82 | – | – | – |
| COC(=O)N[C@H](C(=O)N1C[C@]2(CCCOC2)C[C@H]1c1ncc(-c2ccc(-c3ccc4c(c3)OCc3nc([C@@H]5CCCN5C(=O)[C@@H](NC(=O)OC)C(C)C)[nH]c3-4)cc2)[nH]1)C(C)C [Compound 30] | 8.70 | 10.00 | 10.30 | – | – | – |
| COC(=O)N[C@H](C(=O)N1C[C@]2(CCCOC2)C[C@H]1c1nc2ccc3cc(-c4ccc(-c5cnc([C@@H]6C[C@@H]7C[C@@H]7N6C(=O)[C@@H](NC(=O)OC)C(C)C)[nH]5)cc4)ccc3c2[nH]1)C(C)C [Compound 22] | 9.22 | 10.00 | 11.05 | – | – | – |
| COC(=O)N[C@H](C(=O)N1C[C@]2(CCCOC2)C[C@H]1c1nc2ccc3cc(-c4ccc(-c5cnc([C@@H]6C[C@@H]7COC[C@@H]7N6C(=O)[C@@H](NC(=O)OC)C(C)C)[nH]5)cc4)ccc3c2[nH]1)C(C)C [Compound 34] | 8.82 | 10.70 | 10.62 | – | – | – |
| COC(=O)N[C@H](C(=O)N1C[C@]2(CCCOC2)C[C@H]1c1ncc(-c2ccc(-c3ccc4c(ccc5nc([C@@H]6CCCN6C(=O)[C@@H](NC(=O)OC)C(C)C)[nH]c54)c3)cc2)[nH]1)C(C)C [drawing 233] | – | – | – | 0.08 nM | 0.1 nM | 0.01 nM |
| COC(=O)N[C@H](C(=O)N1C[C@]2(CCCOC2)C[C@H]1c1ncc(-c2ccc(-c3ccc4c(ccc5nc([C@@H]6C[C@@H]7CCC[C@@H]7N6C(=O)[C@@H](NC(=O)OC)C(C)C)[nH]c54)c3)cc2)[nH]1)C(C)C [Compound 16] | 9.10 | 10.70 | 11.05 | – | – | – |
| COC(=O)N[C@H](C(=O)N1C[C@]2(CCCOC2)C[C@H]1c1ncc(-c2ccc(-c3ccc4c(c3)CCCc3nc([C@@H]5C[C@@H]6CCCC[C@@H]6N5C(=O)[C@@H](NC(=O)OC)C(C)C)[nH]c3-4)cc2)[nH]1)C(C)C [Compound 40] | 7.36 | 10.30 | 10.96 | – | – | – |
| COC(=O)N[C@H](C(=O)N1C[C@]2(CCCOC2)C[C@H]1c1nc2ccc3cc(-c4ccc(-c5cnc([C@@H]6C[C@H]7C[C@H]7N6C(=O)[C@@H](NC(=O)OC)C(C)C)[nH]5)cc4)ccc3c2[nH]1)C(C)C [Compound 5] | 9.30 | 10.30 | 11.10 | – | – | – |
| COC(=O)N[C@H](C(=O)N1C[C@]2(CCOC2)C[C@H]1c1ncc(-c2ccc(-c3ccc4c(ccc5nc([C@@H]6CCCN6C(=O)[C@@H](NC(=O)OC)C(C)C)[nH]c54)c3)cc2)[nH]1)C(C)C [Compound 26] | 8.70 | 9.10 | 10.60 | – | – | – |
| COC(=O)N[C@H](C(=O)N1C[C@]2(CCCOC2)C[C@H]1c1nc2ccc3cc(-c4ccc(-c5cnc([C@@H]6C[C@@H]7CCCC[C@@H]7N6C(=O)[C@@H](NC(=O)OC)C(C)C)[nH]5)cc4)ccc3c2[nH]1)C(C)C [Compound 24] | 10.00 | 10.70 | 11.15 | – | – | – |
| COC(=O)N[C@H](C(=O)N1CCC[C@H]1c1ncc(-c2ccc(-c3ccc4c(ccc5nc([C@@H]6C[C@@]7(CCCOC7)CN6C(=O)[C@@H](NC(=O)OC)C(C)C)[nH]c54)c3)cc2)[nH]1)C(C)C [Compound 44] | 10.22 | 10.00 | 11.00 | – | – | – |
| COC(=O)N[C@H](C(=O)N1CCC[C@H]1c1ncc(-c2ccc(-c3ccc4c(ccc5nc([C@@H]6C[C@]7(CCOC7)CN6C(=O)[C@@H](NC(=O)OC)C(C)C)[nH]c54)c3)cc2)[nH]1)C(C)C [Compound 51] | 8.70 | 9.70 | 10.96 | – | – | – |
